Assay results as given in patent US20110224245A1, “Treatment Of Neurological Disorders Using Huperzine” (President and Fellows of Harvard College, priority 2008, published 2011).
Entries after “also recorded” stand apart in the source; their conditions may differ.

Legend:
mice [1] = test: Toxicity / minimal motor impairment after ICV administration (6 Hz screen); format: in vivo; details: for Toxic (animals toxic over number tested): 0.5 h
Description: Doses listed as pmol/5 microliter injection volume for ICV. TD50 at 0.5 hrs: 36.15 (9.35-121.74) 1.57+/−0.51.
(§1) Minimal toxicity was identified in mice by the rotorod procedure.

[2] = test system: Subcutaneous Metrazol (pentylenetetrazol; SCMET) seizures; test: Subcutaneous Metrazol (SCMET / scPTZ) model, mice i.p.; format: in vivo; details: (MJ) animals displaying myoclonic jerks
Experimental: Huperzine A was evaluated in the Maximal Electroshock (MES) and Subcutaneous Metrazol (pentylenetetrazol; SCMET) models of generalized tonic-clonic and myoclonic seizures, respectively in mice and rats.
The Subcutaneous Metrazole (SCMET) model is also an art-recognized test for therapeutic agents for epilepsy, and in particular, is useful for investigating petite mal seizures. A Metrazole dose of 85 mg/kg was administered subcutaneously to induce seizures. Huperzine was then administered and the animals observed.
(§2) Huperzine A was either administered in a soluble form (SOL) or as a suspension (SUS). […] To produce the suspension, huperzine A was ground to a powder using a mortar and pestle, and the powder mixed with methyl cellulose. This mixture was then sonicated to produce a suspension that was subsequently administered to mice in the weight range of 19.0 to 25.5 g. The data are presented as the number of mice showing an effect (N) from the full number of mice (F) tested. […] At four hours post administration, all three mice were protected (i.e., 100% were protected).
Male, 18-25 g CF1 mice and 100-125 g Sprague-Dawley rats (Charles River Laboratories, Wilmington, Mass.) were used as the experimental animals. Animals were pretreated intraperitoneally (i.p.) with increasing doses of HupA and tested at various times after administration for protection against tonic extension (MES test), minimal clonic (s.c. PTZ test), limbic (6 Hz), or secondarily generalized (kindled rat) seizures. Seizure testing was carried out as follows. […] The ability of the test substance to prevent seizures induced by 6 Hz corneal stimulation (32 mA, 3 sec duration) was assessed at various times after i.p. administration of 1 mg/kg HupA For assessment of hippocampal kindling, HupA (1 mg/kg, i.p.) was administered. The ability of the compound to block the expression of hippocampal kindled seizures was evaluated using the rapid hippocampal kindling model (White et al., 2002). […]

mice [3] = test: Toxicity Model (TOX), rotorod / minimal motor impairment, mice i.p.; format: in vivo; details: for Comment (6 Hz test, 22 mA) / Comment (6 Hz test, 32 mA): 1 h
Description: To investigate the neurotoxicity levels of the huperzine compounds, the Toxicity Model (TOX) using a rotorod is employed. The animals (e.g., mice) were trained to stand on an accelerating rotorod rotating at 10 rev min^−1 with a diameter of 3.2 cm. The trained animal can be given the huperzine compound at various doses and the effect of huperzine on their motor skills can be determined. The dose at which the animals fell off the rotorod is the toxic dose.
The neurotoxicity of huperzine was tested in the rotorod test. The mice were trained to stand on an accelerating rotorod rotating at 10 rev min^−1 with a diameter of 3.2 cm. The trained animals were given the huperzine at various doses and the effect of huperzine on their motor skills was determined. The dose at which the animals fell off the rotorod was the toxic dose.
Huperzine A was either administered in a soluble form (SOL) or as a suspension (SUS). […] To produce the suspension, huperzine A was ground to a powder using a mortar and pestle, and the powder mixed with methyl cellulose. This mixture was then sonicated to produce a suspension that was subsequently administered to mice in the weight range of 19.0 to 25.5 g. The data are presented as the number of mice showing an effect (N) from the full number of mice (F) tested. […] At four hours post administration, all three mice were protected (i.e., 100% were protected). […]
as §1

6 Hz seizures = test: 6 Hz seizure test, mice i.p.; format: in vivo; details: for Time to Peak Effect N/F: 6 HZ, 0.83 mg/kg
Experimental: HupA was also evaluated for its ability to modify tonic extension, minimal clonic, limbic seizures in the maximal electroshock seizure (MES), subcutaneous pentylenetetrazol (sc PTZ), and 6 Hz seizure tests following intraperitoneal administration. These three tests are highly predictive of efficacy against human generalized tonic-clonic (MES), generalized myoclonic (sc PTZ), and refractory limbic (6 Hz) seizures, respectively. In addition, it was tested for its ability to prevent the expression of Stage V seizures in the hippocampal kindled rat model of partial epilepsy.
Male, 18-25 g CF1 mice and 100-125 g Sprague-Dawley rats (Charles River Laboratories, Wilmington, Mass.) were used as the experimental animals. Animals were pretreated intraperitoneally (i.p.) with increasing doses of HupA and tested at various times after administration for protection against tonic extension (MES test), minimal clonic (s.c. PTZ test), limbic (6 Hz), or secondarily generalized (kindled rat) seizures. Seizure testing was carried out as follows. For the MES and 6 Hz tests, a drop of anesthetic/electrolyte solution (0.5% tetracaine hydrochloride in 0.9% saline) was applied to the eyes of each animal prior to placement of the corneal electrodes. The electrical stimulus in the MES test was 50 mA, 60 Hz, for mice and 150 mA, 60 Hz, for rats, delivered for 0.2 sec (White et al., 2002, In R. H. Levy et al., eds. Antiepileptic Drugs, 5th edition, p. 36-48, Philadelphia: Lippincott Williams & Wilkins). The ability of the test substance to prevent seizures induced by 6 Hz corneal stimulation (32 mA, 3 sec duration) was assessed at various times after i.p. administration of 1 mg/kg HupA For assessment of hippocampal kindling, HupA (1 mg/kg, i.p.) was administered. The ability of the compound to block the expression of hippocampal kindled seizures was evaluated using the rapid hippocampal kindling model (White et al., 2002). Animals not displaying secondarily generalize seizures were considered protected.

[4] = Solubility in methyl cellulose solvent; format: physicochemical
Description: as §2

## C/C=C1\[C@H]2C=C(C)C[C@]1(N)c1ccc(=O)[nH]c1C2 [Huperzine A]
Mice [1]
  body temperature: Dose-dependent drop in body temperatures
Mice [1]; dose 0.01 (pmol/5 microliter; head mg/kg)
  Toxic (animals toxic over number tested): 0/8 Toxic
Mice [1]; dose 1 (pmol/5 microliter; head mg/kg)
  Toxic (animals toxic over number tested): 0/8 Toxic
Mice [1]; dose 10 (pmol/5 microliter; head mg/kg)
  Toxic (animals toxic over number tested): 2/8 toxic
Mice [1]; dose 100 (pmol/5 microliter; head mg/kg)
  Toxic (animals toxic over number tested): 6/8 Toxic
Mice [1]; dose 1000 (pmol/5 microliter; head mg/kg)
  Toxic (animals toxic over number tested): 4/4 toxic
Mice [1]; 0.5 hrs, (95% interval in brackets)
  TD50: 36.15 (9.35-121.74) pmol/5 microliter injection volume
Mice [1]; dose 10, 0.25 h
  Response comment: Minimal motor impairment
Mice [1]; dose 10, 0.5 h
  Response comment: Minimal motor impairment
Mice [1]; dose 100, 0.25 h
  Response comment: Minimal motor impairment
Mice [1]; dose 100, 0.5 h
  Response comment: Minimal motor impairment
Mice [1]; dose 100, 1 h
  Response comment: Minimal motor impairment
[2]; 1 mg/kg i.p., SOL, 0.5 h
  SCMET N/F (mice showing an effect / mice tested): 3/5 (MJ)^1
[2]; 3 mg/kg i.p., SUS, 0.5 h
  SCMET N/F (mice showing an effect / mice tested): 1/1 (MJ)
[2]; 10 mg/kg i.p., SUS, 4.0 h
  SCMET N/F (mice showing an effect / mice tested): 1/1 (MJ)
Mice [3]; 0.1 mg/kg i.p., SOL, 4.0 h
  TOX N/F (mice showing an effect / mice tested): 0/4
Mice [3]; 0.18 mg/kg IP
  Comment (6 Hz test, 22 mA): Minimal motor impairment
Mice [3]; 0.2 mg/kg IP
  Comment (6 Hz test, 32 mA): Tremors
Mice [3]; 0.3 mg/kg IP
  Comment (6 Hz test, 32 mA): Tremors; also recorded: Minimal motor impairment
Mice [3]; 0.3 mg/kg i.p., SOL, 4.0 h
  TOX N/F (mice showing an effect / mice tested): 0/4
Mice [3]; 0.35 mg/kg IP
  Comment (6 Hz test, 22 mA): Minimal motor impairment
Mice [3]; 0.42 mg/kg IP
  Comment (6 Hz test, 32 mA): Tremors; also recorded: Minimal motor impairment
Mice [3]; 0.7 mg/kg IP
  Comment (6 Hz test, 22 mA): Tremors; also recorded: Minimal motor impairment
Mice [3]; 0.83 mg/kg IP
  Comment (6 Hz test, 32 mA): Tremors; also recorded: Minimal motor impairment
Mice [3]; 1 mg/kg i.p., SOL, 0.5 h, (T) animals displaying tremors
  TOX N/F (mice showing an effect / mice tested): 4/4 (T)^2
Mice [3]; 1 mg/kg i.p., SOL, 4.0 h, (T) animals displaying tremors
  TOX N/F (mice showing an effect / mice tested): 2/2 (T)
Mice [3]; 3 mg/kg i.p., SUS, 0.5 h
  TOX N/F (mice showing an effect / mice tested): 8/8
Mice [3]; 3 mg/kg i.p., SUS, 4.0 h, (T) animals displaying tremors
  TOX N/F (mice showing an effect / mice tested): 4/4 (T)
Mice [3]; 10 mg/kg i.p., SUS, 0.5 h
  TOX N/F (mice showing an effect / mice tested): 4/4
Mice [3]; 10 mg/kg i.p., SUS, 4.0 h, (T) animals displaying tremors
  TOX N/F (mice showing an effect / mice tested): 2/2 (T)
Mice [3]; 30 mg/kg i.p., SUS, 0.5 h, (D) death of animals
  TOX N/F (mice showing an effect / mice tested): 4/4 (D)^3
Mice [3]; 100 mg/kg i.p., SUS, 0.5 h, (D) death of animals
  TOX N/F (mice showing an effect / mice tested): 8/8 (D)
Mice [3]; 300 mg/kg i.p., SUS, 0.5 h, (D) death of animals
  TOX N/F (mice showing an effect / mice tested): 4/4 (D)
Mice [3]; mice
  behavioral impairment at anticonvulsant doses: marked motor impairment
6 Hz seizures; 0.8 mg/kg
  protection in the mouse 6 Hz test (FIG. 1): time-dependent protection
6 Hz seizures; 0.25 h
  Time to Peak Effect N/F: 1/4
6 Hz seizures; 0.5 h
  Time to Peak Effect N/F: 1/4
6 Hz seizures; 1.0 h
  Time to Peak Effect N/F: 4/4
6 Hz seizures; 2.0 h
  Time to Peak Effect N/F: 2/4
6 Hz seizures; 4.0 h
  Time to Peak Effect N/F: 0/4
6 Hz seizures; mouse, in vivo
  protection against 6 Hz seizures (FIG. 2): dose-dependent protection
[4]; at concentrations of 0.1-0.3 mg/kg
  solubility in the methyl cellulose solvent: readily soluble
[4]; at higher concentrations (administered as suspension)
  solubility in the methyl cellulose solvent: not soluble
